Measurements published in article PMC4140816, “Differential Sensitivity of Src-Family Kinases to Activation by SH3 Domain Displacement” (PLoS ONE, 2014).
Where “and” joins values, the source holds several entries; their conditions need not be identical. Identical values can stand only once. Like-named read-outs stand apart in the source and are kept apart here.

What was measured:
Lyn-YEEI = Lyn-YEEI (Homo sapiens, UniProt P07948, Q509E/Q510E/Q511I); assay: Km determination, ADP Quest assay, Lyn-YEEI; format: biochemical; settings: pH 7.4, 25°C, 250 ng/well kinase, mean ±S.E.
Sequence of Lyn-YEEI (P07948 63-512 Q509E/Q510E/Q511I limits assumed): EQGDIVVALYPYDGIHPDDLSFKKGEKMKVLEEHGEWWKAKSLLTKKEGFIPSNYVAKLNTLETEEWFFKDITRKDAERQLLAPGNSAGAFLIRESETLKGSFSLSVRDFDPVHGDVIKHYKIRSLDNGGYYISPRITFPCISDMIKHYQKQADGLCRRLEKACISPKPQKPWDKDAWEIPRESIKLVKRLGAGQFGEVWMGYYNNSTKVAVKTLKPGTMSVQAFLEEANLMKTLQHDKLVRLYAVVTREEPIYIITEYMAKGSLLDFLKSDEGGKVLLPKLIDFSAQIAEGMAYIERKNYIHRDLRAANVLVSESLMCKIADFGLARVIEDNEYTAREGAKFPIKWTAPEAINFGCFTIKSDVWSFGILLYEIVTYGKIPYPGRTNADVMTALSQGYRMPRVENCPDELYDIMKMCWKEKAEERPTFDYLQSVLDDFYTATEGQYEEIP

Hck-YEEI = Hck-YEEI (Homo sapiens, UniProt P08631, Q523E/Q524E/Q525I); assay: Km determination, ADP Quest assay, Hck-YEEI; format: biochemical; settings: pH 7.4, 25°C, 150 ng/well kinase, mean ±S.E.
Sequence of Hck-YEEI (P08631 78-526 Q523E/Q524E/Q525I limits assumed): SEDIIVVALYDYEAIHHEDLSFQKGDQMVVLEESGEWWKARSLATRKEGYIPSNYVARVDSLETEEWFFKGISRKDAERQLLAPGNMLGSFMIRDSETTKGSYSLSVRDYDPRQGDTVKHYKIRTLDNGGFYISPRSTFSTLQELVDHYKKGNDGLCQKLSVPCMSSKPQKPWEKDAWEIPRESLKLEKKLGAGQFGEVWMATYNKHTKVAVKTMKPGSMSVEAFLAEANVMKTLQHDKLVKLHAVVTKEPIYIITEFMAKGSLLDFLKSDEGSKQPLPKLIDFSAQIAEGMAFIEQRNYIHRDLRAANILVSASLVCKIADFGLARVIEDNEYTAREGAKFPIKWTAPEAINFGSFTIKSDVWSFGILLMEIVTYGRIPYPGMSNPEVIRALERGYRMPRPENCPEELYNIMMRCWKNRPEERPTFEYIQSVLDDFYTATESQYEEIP

Fyn-YEEI = Fyn-YEEI (Homo sapiens, UniProt P06241); assay: Km determination, ADP Quest assay, Fyn-YEEI; format: biochemical; settings: pH 7.4, 25°C, 150 ng/well kinase, mean ±S.E.
Sequence of Fyn-YEEI (P06241 with tags, fused parts or gaps): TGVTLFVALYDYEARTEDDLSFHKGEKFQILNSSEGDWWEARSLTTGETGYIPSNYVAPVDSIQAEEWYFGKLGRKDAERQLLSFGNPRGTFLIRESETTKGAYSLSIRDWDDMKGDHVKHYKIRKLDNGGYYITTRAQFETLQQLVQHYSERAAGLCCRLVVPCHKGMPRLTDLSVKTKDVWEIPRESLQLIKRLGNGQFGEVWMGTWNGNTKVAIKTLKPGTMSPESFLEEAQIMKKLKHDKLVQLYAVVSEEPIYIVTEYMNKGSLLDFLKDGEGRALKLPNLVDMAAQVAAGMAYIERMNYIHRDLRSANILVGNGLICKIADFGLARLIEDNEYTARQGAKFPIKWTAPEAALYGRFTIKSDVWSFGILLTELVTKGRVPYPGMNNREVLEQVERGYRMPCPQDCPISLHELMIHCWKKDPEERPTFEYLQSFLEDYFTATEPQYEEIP

Lyn SH3 domain = Lyn SH3 domain (Homo sapiens, UniProt P07948); assay: SPR, VSL12 binding to Lyn SH3; settings: biotinylated VSL12 on SA chip, 25°C, duplicate runs
Sequence of Lyn SH3 domain (P07948 63-123 limits assumed): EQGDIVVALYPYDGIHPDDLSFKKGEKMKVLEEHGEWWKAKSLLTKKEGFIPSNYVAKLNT
Protocol: The biotinylated peptide was immobilized to 80 Response Units (RU) on the surface of a streptavidin (SA) biosensor chip. The recombinant purified Src SH3 domain proteins were flowed past the peptide over the concentration ranges shown. Association was measured for 180 s, followed by a 300 s dissociation phase.
The C-terminus of each construct was modified by the addition of the sequence […] as encoded by the XhoI site and the His6 tag in the vector. For expression of the SH3 and SH2 domains, E. coli strain Rosetta 2(DE3)pLysS (EMD Millipore) was transformed with each plasmid and cultures were grown at 37°C until the OD600 reached 0.8–1.0. Protein expression was induced with 0.4 mM isopropyl -D-thiogalactopyranoside (IPTG) for 4 h at 25°C. The isolated KDs were expressed as previously described by Seeliger, et al. For purification, cell pellets were resuspended in ion-exchange start buffer (20 mM Tris-HCl, pH 8.5, 5 mM -mercaptoethanol, 10% glycerol), sonicated, and clarified by centrifugation. […] Recombinant purified protein concentrations were quantified by Bradford assay using the BioRad Protein Assay Dye Reagent Concentrate and purified BSA as a reference standard (Pierce).
SPR experiments were performed using a Biacore 3000 Instrument (GE Healthcare) on a streptavidin (SA) biosensor chip. […] Association was measured for 180 s, followed by 300 s of dissociation in HBS-EP running buffer. […]

Src-YEEI = Src-YEEI (Homo sapiens, UniProt P12931); format: biochemical; settings: pH 7.4; read-out: Km YIYGSFK
[1] = peptide substrate at Km, n = 3, read-out: Km ATP
[2] = ATP held constant at 200 (µM), n = 4, read-out: Km YIYGSFK

Nc1ncnc2c1ncn2[C@@H]1O[C@H](COP(=O)(O)OP(=O)(O)OP(=O)(O)O)[C@@H](O)[C@H]1O [ATP]
Km (Lyn-YEEI; [1]): 31.1 ± 9.7 µM
Km (Hck-YEEI; [1]): 55.8 ± 18.5 µM
Km (Fyn-YEEI; [1]): 49.7 ± 8.2 µM

CC(C)C[C@H](NC(=O)[C@H](CO)NC(=O)[C@@H](N)C(C)C)C(=O)N[C@@H](C)C(=O)N[C@@H](CCCN=C(N)N)C(=O)N[C@@H](CCCN=C(N)N)C(=O)N1CCC[C@H]1C(=O)N[C@@H](CC(C)C)C(=O)N1CCC[C@H]1C(=O)N1CCC[C@H]1C(=O)N[C@@H](CC(C)C)C(=O)N1CCC[C@H]1C(=O)O [VSL12]
Kd (Lyn SH3 domain; 31.25-250 nM SH3, 1:1 Langmuir fit, χ^2 1.850, read-out: Kinetic KD): 647 nM
Kd (Lyn SH3 domain; 31.25-250 nM SH3, steady state model, χ^2 0.225, read-out: Steady-State KD): 562 nM

YIYGSFK [SFK substrate peptide; Anaspec]
Km (Lyn-YEEI; [2]): 83.2 ± 4.9 µM
Km (Hck-YEEI; [2]): 83.8 ± 12.5 µM
Km (Fyn-YEEI; [2]): 70 µM and 69.6 µM
Km (Src-YEEI): 159 µM
